Laboratory results taken from patent US20220323408A1, “COMPOSITION USED FOR COMBATING METABOLIC DISEASES AND USES OF COMPOSITION” (Institute of Zoology, Chinese Academy of Sciences, priority 2019, published 2022).

Assays:
[1] = test system: diet-induced obesity (DIO) male mice; assay: Body weight change in diet-induced obesity (DIO) mice, 10 days; assay type: in vivo; conditions: 30 mg/kg A alone or 5 mg/kg B alone per day i.p.
Method: In addition, the control group and the experimental group of the present invention all adopt intraperitoneal injections in the process. The injection volume starts at 4 μl/g of body weight and can be adjusted according to the dose, in which the therapeutic agent A in the experimental group (aspirin (trade name Aspirin) is used in the following examples) is diluted in PBS to a dose between 0.3 mg/kg and 120 mg/kg of body weight, the therapeutic agent B (trimetazidine (trade name Trimetazidine) is used in the following examples) is diluted in PBS to a dose between 0.05 mg/kg and 500 mg/kg of body weight. In the control group, the same amount of the therapeutic agent A or the same amount of the therapeutic agent B alone is usually used, or only the same amount of PBS solvent is used as a blank control. Twenty 6-week-old diet-induced obesity (Jackson Lab's Diet-Induced Obese, DIO) male mice with similar physical status were selected and then divided into four groups, and the number of mice in each group was 5. […] The body weight of each mouse was recorded daily.

[2] = test system: p38 and AMPK signaling pathways; assay: Western blot of in vitro human primary skeletal muscle cells over 24 hours; assay type: cell-based; conditions: 100 mg/L A and/or 2 mg/L B, single agents vs DMSO control, weaker or slower than A+B
Method: In vitro human primary skeletal muscle cells were used in the test, the cells were divided into four groups, and each group had six time points. For the experimental group, 100 mg/L of therapeutic agent A and 2 mg/L of therapeutic agent B were administered; for the control group 1, 100 mg/L of therapeutic agent A was administered; for the control group 2, 2 mg/L of therapeutic agent B was administered; and for the control group 3, the same amount of DMSO solvent was used as a blank control. The experiment was conducted 24 hours in total.

diabetic DIO mice [3] = assay: Body weight change in diabetic DIO mice, 4 weeks; assay type: in vivo; conditions: 30 mg/kg A alone or 5 mg/kg B alone per day
[4] = test system: primary human skeletal muscle cells induced insulin resistance; assay: Western blot of primary human skeletal muscle cells with induced insulin resistance, 7 days; assay type: cell-based; conditions: palmitic acid + TNFα 7 days, 100 mg/L A and/or 2 mg/L B on day 4, vs control group 3; for insulin sensitivity indicator phospho-Akt / insulin sensitivity indicator phospho-S6 / myosin heavy chain (MHC): single agents comparably weak
Method: In vitro human primary skeletal muscle cells were used in the experiment, the cells were divided into six groups: for control group 1, the same amount of DMSO solvent was administered for 7 days as a blank control; for control group 2, the same amount of bovine serum albumin (BSA) was administered for 7 days as a fat solvent control; for control group 3, palmitic acid (Pal) and TNFα were administered for 7 days as a high-fat and inflammation-induced insulin resistance control; for control group 4, palmitic acid (Pal) and TNFα were administered for 7 days and 100 mg/L of therapeutic agent A was administered on day 4; for control group 5, palmitic acid (Pal) and TNFα were administered for 7 days and 2 mg/L of therapeutic agent B was administered on day 4; for the experimental group, palmitic acid (Pal) and TNFα were administered for 7 days and 100 mg/L of therapeutic agent A and 2 mg/L of therapeutic agent B were administered on day 4; afterwards, protein Western blot analysis was performed on each group of samples, as shown in FIG. 47.

diabetic DIO mice [5] = assay: Serum indicators of hyperlipidemia, fatty liver and nitrogen metabolism in diabetic DIO mice; assay type: in vivo; conditions: 4 weeks, 30 mg/kg A and/or 5 mg/kg B per day, vs blank control group 3
Method: Subsequent tests were performed on each group of mice that had completed the treatment of Example 8. Examples 9 and 10 detected two indicators related to obesity and hyperlipidemia: total cholesterol and LDL-cholesterol; Example 11 detected alanine aminotransferase (ALT), an indicator related to fatty liver disease; and Examples 12 and 13 detected two indicators related to nitrogen metabolism: albumin/globulin ratio and total protein.

[6] = test system: HFD (high-fat diet)-induced obesity and insulin resistance; conditions: C57BL/6J mice; cited from earlier work
[7] = LC-MS analysis of mouse serum 1 hour after administration; assay type: in vivo; conditions: mice of control group 1 (30 mg/kg A); serum 1 hour later; LC-MS vs blank control group 3
Method: Mice were grouped and administered according to the same method as in Example 8, except that serum samples from each group of mice were subjected to liquid phase mass spectrometry (LC-MS, Waters XBridge C18 column and Xevo G2-XS) analysis 1 hour later, and the most prominent small molecule markers were taken out, as shown in FIG. 51.

pancreatic beta cells = conditions: by reducing PGE2-mediated β-cell apoptosis; cited from earlier work
[8] = long-term administration (3 to 24 hours)
[9] = short-term administration (within 60 minutes)

Compound	effect on the body weight [1]	PGC1a [2, 8]	phospho-ACC [2, 8]	phospho-p38 [2, 8]	PGC1a [2, 9]	phospho-ACC [2, 9]	phospho-AMPK [2, 9]	phospho-p38 [2, 9]	effect on the body weight (diabetic DIO mice [3])	cellular senescence indicator H3K9me3 [4]	insulin sensitivity indicator phospho-Akt [4]	insulin sensitivity indicator phospho-S6 [4]	myosin heavy chain (MHC) [4]	LDL-cholesterol (diabetic DIO mice [5])	alanine aminotransferase (ALT) (diabetic DIO mice [5])	albumin/globulin ratio (diabetic DIO mice [5])	total cholesterol (diabetic DIO mice [5])	total protein (diabetic DIO mice [5])	other results
COc1ccc(CN2CCNCC2)c(OC)c1OC [therapeutic agent B, trimetazidine]	almost no significant effect	could also down-regulate	could also down-regulate	could also down-regulate	could also up-regulate	could also up-regulate	could also up-regulate	could also up-regulate	almost no obvious effect	cannot achieve the same effect	can also up-regulate	can also up-regulate	can also up-regulate	neither therapeutic agent A in control group 1 nor therapeutic agent B in control group 2 used alone was able to achieve significant therapeutic or restorative effects	neither therapeutic agent A in control group 1 nor therapeutic agent B in control group 2 used alone was able to achieve significant therapeutic or restorative effects	neither therapeutic agent A in control group 1 nor therapeutic agent B in control group 2 used alone was able to achieve significant therapeutic or restorative effects	neither therapeutic agent A in control group 1 nor therapeutic agent B in control group 2 used alone was able to achieve significant therapeutic or restorative effects	neither therapeutic agent A in control group 1 nor therapeutic agent B in control group 2 used alone was able to achieve significant therapeutic or restorative effects	
COc1ccc2c(c1)c(CC(=O)O)c(C)n2C(=O)c1ccc(Cl)cc1 [Indomethacin]																			HFD (high-fat diet)-induced obesity [6]: prevent; HFD-induced insulin resistance [6]: prevent
CC(=O)Oc1ccccc1C(=O)O [therapeutic agent A, aspirin]	almost no significant effect	could also down-regulate	could also down-regulate	could also down-regulate	could also up-regulate	could also up-regulate	could also up-regulate	could also up-regulate	almost no obvious effect	can down-regulate	can also up-regulate	can also up-regulate	can also up-regulate	neither therapeutic agent A in control group 1 nor therapeutic agent B in control group 2 used alone was able to achieve significant therapeutic or restorative effects	neither therapeutic agent A in control group 1 nor therapeutic agent B in control group 2 used alone was able to achieve significant therapeutic or restorative effects	neither therapeutic agent A in control group 1 nor therapeutic agent B in control group 2 used alone was able to achieve significant therapeutic or restorative effects	neither therapeutic agent A in control group 1 nor therapeutic agent B in control group 2 used alone was able to achieve significant therapeutic or restorative effects	neither therapeutic agent A in control group 1 nor therapeutic agent B in control group 2 used alone was able to achieve significant therapeutic or restorative effects	formation of salicylate derivatives in serum [7]: can effectively form a variety of salicylate derivatives in serum
CS(=O)(=O)Nc1ccc([N+](=O)[O-])cc1OC1CCCCC1 [NS-398]																			β-cell dysfunction (pancreatic beta cells): reverse
